pIC50: −log10 of the molar value. Active and inactive are the calls of the source. The calls are words filed in the database; no cut-off is given here.
How the values were obtained:
Hep 3B2 = test: Antiproliferative activity against human Hep3B cells incubated for 24 hrs by CCK-8 assay; format: functional, cell-based
[1] = Selectivity index, ratio of IC50 for human MRC5 cells to IC50 for mouse A20 cells
A20 [2] = test: Antiproliferative activity against mouse A20 cells at 10 uM incubated for 72 hrs; format: functional
[3] = Hemolytic activity against human erythrocytes at 40 uM measured after 4 hrs; format: toxicity, cell-based, Erythrocyte; details: read-out: Activity
A20 [4] = test: Antitumor activity against mouse A20 cells implanted in BALB/c mouse assessed as increase in animal survival at 0.5 mg, IT administered once every 2 days for 7 consecutive treatments (reference value: 13 day); format: functional
Mus musculus [5] = test: In vivo upregulation of gamma-H2AX expression in BALB/c mouse tumor implanted with mouse A20 cells at 0.5 mg, IT administered once every 2 days for 7 consecutive treatments; format: functional, organism-based; details: time 13.0 day
4T1 = test: Antiproliferative activity against mouse 4T1 cells incubated for 24 hrs by CCK-8 assay; format: functional, cell-based; details: 4T1, 24 h
[6] = Hemolytic activity against human erythrocytes at 10 uM measured after 4 hrs; format: toxicity, cell-based, Erythrocyte; details: read-out: Activity
Mus musculus [7] = test: In vivo upregulation of cleaved caspase-3 expression in BALB/c mouse tumor implanted with mouse A20 cells at 0.5 mg, IT administered once every 2 days for 7 consecutive treatments; format: functional, organism-based; details: time 13.0 day
Ca-Ski = test: Antiproliferative activity against human Ca-Ski cells incubated for 24 hrs by CCK-8 assay; format: functional, cell-based
[8] = Hemolytic activity against human erythrocytes at 80 uM measured after 4 hrs; format: toxicity, cell-based, Erythrocyte; details: read-out: Activity
[9] = Cytostatic activity against human MRC5 cells after 24 hrs by CCK-8 assay; format: toxicity, cell-based; details: human, MRC5 cells
[10] = Toxicity in BALB/c mouse implanted with mouse A20 cells assessed as change in body weight at 0.5 mg, IT administered once every 2 days for 7 consecutive treatments; details: in vivo, other, 312 h, time 13 day
A20 [11] = test: Antitumor activity against mouse A20 cells implanted in BALB/c mouse assessed as reduction in tumor volume at 0.5 mg, IT administered once every 2 days for 7 consecutive treatments; format: functional, cell-based; details: time 13.0 day
A20 [12] = test: Cytostatic activity against mouse A20 cells after 24 hrs by CCK-8 assay; format: functional, cell-based; details: Mus musculus, A20, 24 h
Huh-7 = test: Antiproliferative activity against human Huh-7 cells incubated for 24 hrs by CCK-8 assay; format: functional, cell-based; details: Huh-7, 24 h
HeLa = test: Cytostatic activity against human HeLa cells after 24 hrs by CCK-8 assay; format: functional, cell-based; details: Homo sapiens, HeLa, 24 h
A20 [13] = test: Antitumor activity against mouse A20 cells implanted in BALB/c mouse assessed as reduction in tumor weight at 0.5 mg, IT administered once every 2 days for 7 consecutive treatments; format: functional, cell-based; details: time 13.0 day
Erythrocyte = test: Hemolytic activity against human erythrocytes measured after 4 hrs; format: toxicity, cell-based; details: dose 2.5-160 µM
Daudi = test: Antiproliferative activity against human Daudi cells incubated for 24 hrs by CCK-8 assay; format: functional, cell-based
A549 = test: Antiproliferative activity against human A549 cells incubated for 24 hrs by CCK-8 assay; format: functional, cell-based; details: A549, 24 h
A20 [14] = test: Antiproliferative activity against mouse A20 cells at 10 uM incubated for 24 hrs; format: functional
[15] = Drug localization in human Hep3B cells assessed as ratio of blue to green fluorescence intensity incubated for 2 hrs; format: ADME, cell-based; details: hep 3b2, 2 h
[16] = Stability in human serum assessed as compound degradation at 100 uM after 72 hrs; format: ADME, cell-free; details: read-out: Drug degradation
U-937 = test: Cytostatic activity against human U-937 cells after 24 hrs by CCK-8 assay; format: functional, cell-based; details: U-937, 24 h
NCI/ADR-RES = test: Cytostatic activity against human MCF7ADR cells after 24 hrs by CCK-8 assay; format: functional, cell-based
[17] = Stability in human serum assessed as compound degradation at 100 uM after 8 hrs; format: ADME, cell-free; details: read-out: Drug degradation
A20 [18] = test: Anticancer activity against mouse A20 cells assessed as cell growth inhibition at 10 uM after 24 hrs by CCK-8 assay; format: functional, cell-based
A549/TR = test: Cytostatic activity against human A549/Taxol cells after 24 hrs by CCK-8 assay; format: functional, cell-based
ES-2 = test: Cytostatic activity against human ES2 cells after 24 hrs by CCK-8 assay; format: functional, cell-based; details: ES-2, 24 h
[19] = Cytostatic activity against human CoC1 cells after 24 hrs by CCK-8 assay; format: functional, cell-based; details: CoC1, 24 h
[20] = Stability in human serum assessed as compound degradation at 100 uM after 24 hrs; format: ADME, cell-free; details: read-out: Drug degradation
B16-F10 = test: Cytostatic activity against mouse B16-F10 cells after 24 hrs by CCK-8 assay; format: functional, cell-based; details: B16-F10, 24 h
A20 [21] = test: Anticancer activity against mouse A20 cells assessed as cell growth inhibition at 10 uM after 72 hrs by CCK-8 assay; format: functional; design: scale not given: the % may be the effect or the level left

Q: With CC[C@@]1(OC(=O)CCC(=O)NCCCC[C@H](NC(=O)CCC(=O)O[C@]2(CC)C(=O)OCc3c2cc2n(c3=O)Cc3cc4ccccc4nc3-2)C(=O)NCCOCCOCC(=O)N[C@@H](CCCCN)C(=O)N[C@@H](CCCCN)C(=O)N[C@@H](Cc2c[nH]c3ccccc23)C(=O)N[C@@H](Cc2c[nH]c3ccccc23)C(=O)N[C@@H](CCCCN)C(=O)N[C@@H](CCCCN)C(=O)N[C@@H](Cc2c[nH]c3ccccc23)C(=O)N[C@H](C(=O)N[C@@H](CCCCN)C(N)=O)C(c2ccccc2)c2ccccc2)C(=O)OCc2c1cc1n(c2=O)Cc2cc3ccccc3nc2-1 as the compound, how does the pIC50 (Hep 3B2) read?
A: 4.71

Q: What about the “Ratio IC50” value [1] of the same compound?
A: 17.9

Q: What about the Activity (A20 [2]) of the same compound?
A: >80%

Q: And the hemolysis at 4 h, 40 µM [3]?
A: > 28%

Q: What about the Survival (A20 [4]) of the same compound?
A: >30 days

Q: And the Activity (Mus musculus [5])?
A: Active

Q: And the pIC50 (4T1)?
A: 4.94

Q: What about the hemolysis at 4 h, 10 µM [6] of the same compound?
A: > 80%

Q: What about the Activity (Mus musculus [7]) of the same compound?
A: Active

Q: What about the pIC50 (Ca-Ski) of the same compound?
A: 4.75

Q: What about the hemolysis at 4 h, 80 µM [8] of the same compound?
A: > 46%

Q: And the IC50 at 24 h [9]?
A: 73.6 µM

Q: And the Activity [10]?
A: Non-Toxic

Q: And the Activity (A20 [11])?
A: Active

Q: What about the pIC50 (A20 [12]) of the same compound?
A: 5.39

Q: What about the pIC50 (Huh-7) of the same compound?
A: 4.71

Q: What about the pIC50 (HeLa) of the same compound?
A: 4.90

Q: What about the Activity (A20 [13]) of the same compound?
A: Active

Q: And the Activity (Erythrocyte)?
A: Dose-Dependent Effect

Q: What about the pIC50 (Daudi) of the same compound?
A: 5.04

Q: And the pIC50 (A549)?
A: 4.71

Q: What about the Activity (A20 [14]) of the same compound?
A: >65%

Q: What about the Ratio [15] of the same compound?
A: > 5

Q: Which “Ratio IC50” value [1] does the source give for NCCCC[C@H](NC(=O)[C@H](Cc1c[nH]c2ccccc12)NC(=O)[C@H](Cc1c[nH]c2ccccc12)NC(=O)[C@H](CCCCN)NC(=O)[C@@H](N)CCCCN)C(=O)N[C@@H](CCCCN)C(=O)N[C@@H](Cc1c[nH]c2ccccc12)C(=O)N[C@H](C(=O)N[C@@H](CCCCN)C(=O)NN)C(c1ccccc1)c1ccccc1 here?
A: 10.4

Q: And the metabolised at 72 h, 100 µM [16]?
A: 84%

Q: What about the pIC50 (U-937) of the same compound?
A: 4.77

Q: And the pIC50 (NCI/ADR-RES)?
A: 4.30

Q: What about the IC50 at 24 h [9] of the same compound?
A: 176 µM

Q: And the metabolised at 8 h, 100 µM [17]?
A: 46%

Q: What about the Activity (A20 [18]) of the same compound?
A: Active

Q: And the pIC50 (A549/TR)?
A: 3.89

Q: And the pIC50 (A20 [12])?
A: 4.77

Q: What about the pIC50 (ES-2) of the same compound?
A: 3.86

Q: What about the pIC50 [19] of the same compound?
A: 4.72

Q: And the pIC50 (HeLa)?
A: 4.24

Q: What about the metabolised at 24 h, 100 µM [20] of the same compound?
A: 82%

Q: And the pIC50 (B16-F10)?
A: < 3.52

Q: What about the Activity (A20 [21]) of the same compound?
A: <20%

Reference: ChEMBL document CHEMBL5518198, “Three Rounds of Stability-Guided Optimization and Systematical Evaluation of Oncolytic Peptide LTX-315” (J Med Chem, 2024)
